We go through 71 molecules from PubChem BioAssay AID2253 (Southern Research Specialized Biocontainment Screening …, 2010).

One may read the EC50 as the midpoint of the concentration-response curve.

The test system of this assay is THP-1 viability, CellTiter-Glo luminescence, 72 h. Description: human monocytic cell viability reduction – S. typhimurium screen hits, cytotoxicity control for Salmonella PhoP regulon inhibitors, dose response (AID 2253).
With `COc1ccc(-n2c(CNc3ccc(C)cc3)nnc2SCc2ccccc2)cc1`, the EC50 was 33.3 µM. Under `CCCCCCCCCCOC(=O)Cn1c(COc2cccc(C)c2)[n+](C)c2ccccc21` stands 4.4 µM; under `C#CCOCCOCCOCCNc1nc(N2CCN(C(=O)CCCCCCCCCCNC(=O)[C@H]([C@@H](C)CC)n3cc(CCCCN=C(N)N)nn3)CC2)nc(N2CCN(C(=O)CCCCCCCCCCNC(=O)[C@H](CCCN=C(N)N)n3cc(C[C@@H](C)CC)nn3)CC2)n1`, 3.57 µM; under `CCC(C)(C)c1ccc(OCCCC[n+]2ccccc2)c(C(C)(C)CC)c1`, 1.2 µM. The result for `CN1CCN(CCCN2c3ccccc3Sc3ccc(Cl)cc32)CC1` reads 14.1 µM; that for `CCOc1ccc(Nc2nc(N)c3ccccc3n2)cc1`, 7.05 µM; that for `O=S(=O)(Nc1ccc2ccccc2c1)c1ccccc1`, 47.2 µM. `COc1ccc(/C=N/Nc2cc(C)nc3c(C)cccc23)cc1`: the EC50 was 7.25 µM. Under `CN1C(=O)/C(=C/c2cccn2-c2ccc3ccccc3c2)C(=O)NC1=S` stands 16.6 µM; under `Cc1onc(-c2ccccc2)c1C(=O)NC(=S)NNC(=O)c1ccc(O)cc1O`, 1.87 µM; under `Cc1cc(-c2csc(N)n2)c(C)n1-c1ccccc1`, 16.9 µM. Consider `NC(=NCCc1c[nH]c2ccccc12)NC(=O)c1ccc(F)cc1`, for which the EC50 is 36.4 µM. Consider `C/C(=N\Nc1nc2ccccc2[nH]1)c1ccc(Cl)s1`, for which the EC50 is 32.6 µM.

Take `O=C(N/N=C/c1c[nH]c2ccccc12)c1cc(-c2cccc3ccccc23)n[nH]1`: the EC50 was 13.8 µM.

For `C=COC(=O)CSc1snc(SCC(=O)OC)c1C#N`, the EC50 was 32.3 µM. As to `O=C(/C=C/c1ccco1)Oc1cc(Br)cc(/C=N/NC(=O)c2ccccc2O)c1`, the EC50 is 0.35 µM.

For `CCCCCN=C(N)N/N=C/c1c[nH]c2ccc(OC)cc12`, the EC50 was 1.58 µM. Take `C=CCNc1ncnc2c1[nH]c1ccccc12`: the EC50 is 46 µM. In the case of `CCCCCCCCCC[n+]1cccc2c3ccccc3ccc21`, the EC50 was 0.6 µM. In the case of `O=C1c2ccccc2NC(c2ccc(-c3ccc(Br)cc3)o2)N1O` (stereo unspecified), the EC50 is 7.16 µM.

Consider `Cc1ccccc1OCc1n(CC(=O)OC2CC(C)CCC2C(C)C)c2ccccc2[n+]1C` (stereo unspecified), for which the EC50 was 2 µM. Regarding `Oc1cccc(Nc2c3ccccc3nc3ccccc23)c1`, the EC50 was 12 µM. The result for `Cc1cccc(NC(=O)Cn2c(/C=C/c3ccccc3)nc3ccccc32)c1` reads 45 µM. On to `Cc1[nH]c2ccccc2c1C(O)CN1CCN(c2cccc(C(F)(F)F)c2)CC1` (stereo unspecified), for which the concentration for a half-maximal effect (EC50) is 9.39 µM.

For `CCCCOc1ccc(Cc2cnc(N)nc2N)cc1`, the EC50 was 41.5 µM. Turning to `O=C(NNc1c2ccccc2nc2ccccc12)c1cccc(O)c1`, the EC50 was 23.2 µM. With `COc1cccc(C2CC(=O)Nc3cc(OC)c(OC)c(OC)c32)c1OC` (stereo unspecified), the EC50 was 46.2 µM. `O=C(c1ccco1)[C@@H]1[C@@H]2C(=O)N(c3ccc(F)cc3)C(=O)[C@@H]2[C@H]2C=Cc3ccccc3N21`: the EC50 is 23.5 µM.

For `c1ccc(C2CNCc3c2ccc2ccccc32)cc1` (stereo unspecified), the EC50 is 11 µM. For `CCOC(=O)N1CCN(S(=O)(=O)c2ccc(C(=O)NNc3nc4cc(C)cc(C)c4s3)cc2)CC1`, the EC50 was 2.88 µM. For the molecule `Cc1ccc(C(=O)N/N=C/c2cc(Br)ccc2O)cn1`, the EC50 was 1.78 µM.

For `CCOc1ccc(-n2c(SCc3nc(-c4ccc(C)cc4)no3)nnc2-c2ccncc2)cc1`, the EC50 is 28.3 µM. Regarding `COc1ccccc1CNCC(O)Cn1c2ccccc2c2ccccc21` (stereo unspecified), the EC50 was 8.21 µM. Regarding `Cc1ccc(NC(=S)NC(NC(=O)c2ccco2)C(Cl)(Cl)Cl)cc1` (stereo unspecified), the EC50 is 19.6 µM. Regarding `C/C(=N\Nc1ncnc2sc(C)c(C)c12)c1ccccn1`, the EC50 is less than 0.1 µM.

`NC1=NC[C@H](c2ccccc2)N1CCCCC1CCCCC1`: the EC50 was 5.06 µM. As to `Nc1c(Cl)ncnc1N/N=C/c1ccccn1`, the concentration giving a half-maximal response (EC50) is 0.47 µM. As for `Cc1cccc(Nc2c3c(nc4ccccc24)CCC3)c1`, the EC50 was 9.08 µM. For `O=C(N/N=C\c1cccc([N+](=O)[O-])c1O)C1COc2ccccc2O1` (stereo unspecified), the EC50 was 21.5 µM. `Cc1nc2c(=O)n(C)c(=O)n(C)c2nc1Cl`: the EC50 was 7.48 µM.

`C1=C(CCNc2ncnc3c2[nH]c2ccccc23)CCCC1`: the EC50 is 6.37 µM.

On to `COc1ccc2[nH]c3c(C)c4ccncc4c(C)c3c2c1`, for which the EC50 was 1.27 µM.

Regarding `O=[N+]([O-])c1ccc(O)c(/C=N/Nc2ccccn2)c1`, the EC50 is 0.42 µM. As to `O=C1C(=O)c2ccccc2-c2ccccc21`, the EC50 was 8.03 µM. The result for `CCn1c2ccccc2c2cc(/C=N/NC(=O)c3ccccc3)ccc21` reads 4.12 µM; that for `COc1ccc(CNC[C@@H](CCCCN(C)Cc2ccc(OC)cc2)N2C[C@H](c3ccccc3)N(CCc3ccc(Cl)c(Cl)c3)C(=O)C2=O)cc1`, 3.93 µM. Consider `Cc1cc(C(C)(C)CC(C)(C)C)ccc1OCCOCC[N+](C)(C)Cc1ccccc1`, for which the EC50 is 1.61 µM.

For `Cc1ccc(C(=O)NNc2c3ccccc3nc3ccccc23)cc1`, the EC50 is 27.5 µM. Regarding `Cc1ccccc1OCCCCCn1ccnc1`, the EC50 is 24.4 µM.

Turning to `Cc1cc(C)nc(/N=C(\N)Nc2ccc(SC(F)F)cc2)n1`, the EC50 is 13.1 µM.

`CCCC(=O)NC(c1ccc(Cl)cc1)c1ccc2cccnc2c1O` (stereo unspecified): the EC50 is 0.38 µM. `CCc1ccc(Nc2nc(N)nc(CSc3nc4ccccc4s3)n2)cc1`: the EC50 is 33.8 µM. For `c1ccc(Nc2cc(Nc3ccccc3)[nH]n2)cc1`, the EC50 was 23.7 µM. The result for `Cc1cc(C)cc(CC(Cc2nc3ccccc3[nH]2)c2nc3ccccc3[nH]2)c1` (stereo unspecified) reads 11.8 µM; that for `COc1ccc(Nc2nnc(SCc3cn4c(C)cccc4n3)s2)cc1`, 9.34 µM. Take `CCc1ccc(-c2nn(-c3ccccc3)cc2CSC(=N)N)cc1`: the EC50 is 6.52 µM.

Turning to `CCOc1cc(/C=N/N=C(N)N)ccc1OCc1ccc(Cl)cc1`, the EC50 is 5.19 µM. For `CCCCCCCCCCCCCCCC[N+](C)(C)CC`, the EC50 was 0.7 µM. In the case of `CCCCCCCCCn1c2c(c(=N)c3c1CCC3)CCC2`, the EC50 is 0.42 µM. For `Cc1ccc2nc(NNC(=O)c3ccc(S(=O)(=O)N4CCc5ccccc5C4)cc3)sc2c1`, the EC50 was 1.83 µM. Consider `CCCCCCCCOC(=O)C1=C(C)Nc2nnnn2C1c1cccs1` (stereo unspecified), for which the EC50 is 21.8 µM. Take `NNC(=S)Nc1ccc(Cl)cc1`: the EC50 was 48.1 µM. Consider `CCCNC1=C(C)C(=O)C2=C(C1=O)C(COC(N)=O)[C@]1(OC)C3NC3CN21` (stereo partly specified), for which the EC50 is 10.1 µM.

On to `C(=C\c1ccccc1)/C=N/Nc1nc2ccccc2[nH]1`, for which the EC50 was 15.5 µM. With `CCCCCCNC(=O)c1cn(CC)c2cc(N3CCN(C)CC3)c(F)cc2c1=O`, the EC50 was 16.1 µM. As to `C/C(=N/Nc1nc(-c2ccccc2)cc(-c2ccc(F)cc2)n1)c1cccc(N)c1`, the EC50 is 18.1 µM. The result for `O=C(CCN1CCc2ccccc2C(c2ccccc2)C1)c1ccc2c(c1)OCCO2` (stereo unspecified) reads 18 µM; that for `O=C(c1ccc(F)cc1)C(CN1CCOCC1)c1ccccc1` (stereo unspecified), 6.92 µM; that for `Cc1ccc(-c2c[n+](CC(=O)Nc3nc(-c4ccc(F)cc4)cs3)c3n2CCC3)cc1`, 9.65 µM. The result for `c1csc(C2Nc3ccccc3-c3nc4ccccc4n32)c1` (stereo unspecified) reads 33.7 µM.

For the molecule `CNc1cc(Cl)c2nonc2c1[N+](=O)[O-]`, the EC50 is 3.65 µM.
